Assay results from publication PMC8880132 (Molecules, 2022).
Read-outs that look alike come from different tables or passages of the source.

Columns and labels:
P-glycoprotein (P-gp) = conditions: cited from earlier work
[1] = Stability of LEN and TEL in rat plasma under various storage conditions; assay type: in vitro ADME; conditions: for Stability, measured concentration Mean ± SD / Stability, Accuracy (RE%) vs nominal concentration: rat plasma; for Stability, measured concentration Mean ± SD: n = 6
Description: QC samples with six replicates of each concentration were used to assess the stability of the samples under different processing and storage conditions. […] The long-term stability was carried out by freezing at −80 °C for 30 days, and the freeze–thaw stability was verified by repeatedly freezing and thawing three times.

[2] = Pharmacokinetic drug-drug interaction study in rats after oral administration; assay type: in vivo, SD (Sprague-Dawley) rats; conditions: for Cmax / Tmax / half-life / AUC(0-inf) / AUC(0-t): male, Sprague-Dawley, rat, plasma, po; for Cmax / Tmax / half-life / AUC(0-inf) / AUC(0-t) / CLz / Vz: rat plasma; for Tmax: median (range); for half-life: read-out: t1/2z (converted)
Description: SPF (specific pathogen free)-grade male SD (Sprague-Dawley) rats (weight: 230 ± 10 g) were purchased from Beijing Weitong Lihua Experimental Animal Technology Co. Ltd. (Beijing, China). Before starting the experiment, the rats were given sufficient food and water and kept under suitable conditions for one week. Suitable conditions included suitable temperature (23–27 °C), suitable humidity (50 ± 10%), and 12-h light–12-h dark diurnal cycle. All animals were fasted for 12 h before the start of the experiment, but they were allowed to drink water freely. All the animal experimental protocols were conducted in accordance with the UK Animals (Scientific Procedures) Act 1986 and under the guideline approved by the Ethics Committee of Hebei General Hospital (Shijiazhuang, China; No. 2021131).
Twenty-four healthy rats were randomly and equally divided into four groups (six animals in each group). […] Approximately 0.3 mL of blood was collected from the orbital venous plexus in a heparinized centrifuge tube from each rat at 0.25, 0.5, 1, 2, 3, 4, 6, 8, 10, 12, 24, 48, 72, and 96 h after administration. […] The blood samples were collected from each rat at 0.17, 0.33, 0.5, 0.75, 1, 2, 3, 4, 6, 8, 10, 12, 24, 48, and 72 h after administration. Blood samples were centrifuged at 3500 rpm for 10 min, and the plasma samples (supernatant) were harvested and stored at −80 °C.
The main pharmacokinetic parameters are presented as mean ± standard deviation and statistically analyzed using SPSS 25.0 software package (SPSS Inc., Chicago, IL, USA). A p-value of <0.05 was considered statistically significant.

[3] = cited from earlier work
[4] = system: breast cancer resistance protein (BCRP); conditions: cited from earlier work
[5] = cited from earlier work; remark: listed apart in the source
[6] = system: multidrug resistance-associated protein 2 (MRP2); conditions: in vitro studies; cited from earlier work
[7] = autosampler for 24 h, high QC (800 ng/mL LEN, 400 ng/mL TEL)
[8] = autosampler for 24 h, low QC (0.5 ng/mL LEN, 0.25 ng/mL TEL)
[9] = freeze–thaw three times, high QC (800 ng/mL LEN, 400 ng/mL TEL)
[10] = freeze–thaw three times, low QC (0.5 ng/mL LEN, 0.25 ng/mL TEL)
[11] = freeze–thaw three times, medium QC (150 ng/mL LEN, 75 ng/mL TEL)
[12] = room temperature for 8 h, high QC (800 ng/mL LEN, 400 ng/mL TEL)
[13] = room temperature for 8 h, low QC (0.5 ng/mL LEN, 0.25 ng/mL TEL)
[14] = room temperature for 8 h, medium QC (150 ng/mL LEN, 75 ng/mL TEL)
[15] = −80 °C for 30 days, high QC (800 ng/mL LEN, 400 ng/mL TEL)
[16] = −80 °C for 30 days, low QC (0.5 ng/mL LEN, 0.25 ng/mL TEL)
[17] = −80 °C for 30 days, medium QC (150 ng/mL LEN, 75 ng/mL TEL)
[18] = 1.2 mg/kg, LEN 1.2 mg/kg oral, alone
[19] = 1.2 mg/kg, LEN 1.2 mg/kg oral, with TEL (4 mg/kg)
[20] = LEN 1.2 mg/kg oral, with TEL (4 mg/kg)
[21] = autosampler for 24 h, medium QC (150 ng/mL LEN, 75 ng/mL TEL)
[22] = TEL 4 mg/kg with LEN 1.2 mg/kg vs TEL alone, rats, oral
[23] = 4 mg/kg, TEL 4 mg/kg oral, alone
[24] = 4 mg/kg, TEL 4 mg/kg oral, with LEN (1.2 mg/kg)

SMILES: COc1cc2nccc(Oc3ccc(NC(=O)NC4CC4)c(Cl)c3)c2cc1C(N)=O [LEN, Lenvatinib]
- P-gp interaction (P-glycoprotein (P-gp)): substrate
- Stability, measured concentration Mean ± SD [1, 7]: 835.67 ± 34.60 ng/mL
- Stability, measured concentration Mean ± SD [1, 8]: 0.48 ± 0.03 ng/mL
- Stability, measured concentration Mean ± SD [1, 9]: 787.50 ± 40.13 ng/mL
- Stability, measured concentration Mean ± SD [1, 10]: 0.48 ± 0.05 ng/mL
- Stability, measured concentration Mean ± SD [1, 11]: 150.17 ± 14.85 ng/mL
- Stability, measured concentration Mean ± SD [1, 12]: 751.50 ± 19.74 ng/mL
- Stability, measured concentration Mean ± SD [1, 13]: 0.52 ± 0.03 ng/mL
- Stability, measured concentration Mean ± SD [1, 14]: 149.33 ± 11.15 ng/mL
- Stability, measured concentration Mean ± SD [1, 15]: 808.00 ± 59.16 ng/mL
- Stability, measured concentration Mean ± SD [1, 16]: 0.53 ± 0.05 ng/mL
- Stability, measured concentration Mean ± SD [1, 17]: 154.00 ± 4.77 ng/mL
- Cmax [2, 18]: 498 ± 107 ng/mL
- Tmax [2, 18]: 2.5 h
- half-life [2, 18]: 8.75 ± 2.55 h
- AUC(0-inf) [2, 19]: 5860 ± 1350 ng·h/mL
- AUC(0-t) [2, 19]: 5860 ± 1350 ng·h/mL
- Cmax [2, 19]: 644 ± 211 ng/mL
- half-life [2, 19]: 9.32 ± 4.69 h
- CLz ([2]; LEN 1.2 mg/kg oral, alone): 3.5 ± 0.33 mL/min/kg
- Vz ([2]; LEN 1.2 mg/kg oral, alone): 2.69 ± 0.79 L/kg
- CLz [2, 20]: 3.67 ± 0.83 mL/min/kg
- Vz [2, 20]: 2.92 ± 1.60 L/kg
- water solubility [3]: poor water solubility
- BCRP interaction [4]: substrate

SMILES: CCCc1nc2c(C)cc(-c3nc4ccccc4n3C)cc2n1Cc1ccc(-c2ccccc2C(=O)O)cc1 [TEL, Telmisartan]
- half-life [5]: 24 h
- P-gp interaction (P-glycoprotein (P-gp); in vitro studies): substrate and inhibitor
- Stability, Accuracy (RE%) vs nominal concentration [1, 7]: −0.38%
- Stability, measured concentration Mean ± SD [1, 7]: 398.50 ± 22.76 ng/mL
- Stability, Accuracy (RE%) vs nominal concentration [1, 8]: −4.33%
- Stability, measured concentration Mean ± SD [1, 8]: 0.24 ± 0.02 ng/mL
- Stability, Accuracy (RE%) vs nominal concentration [1, 21]: −1.76%
- Stability, measured concentration Mean ± SD [1, 21]: 73.68 ± 1.59 ng/mL
- Stability, Accuracy (RE%) vs nominal concentration [1, 9]: −2.17%
- Stability, measured concentration Mean ± SD [1, 9]: 391.33 ± 25.73 ng/mL
- Stability, Accuracy (RE%) vs nominal concentration [1, 10]: −0.47%
- Stability, measured concentration Mean ± SD [1, 10]: 0.25 ± 0.01 ng/mL
- Stability, Accuracy (RE%) vs nominal concentration [1, 11]: −3.53%
- Stability, measured concentration Mean ± SD [1, 11]: 72.35 ± 2.51 ng/mL
- Stability, Accuracy (RE%) vs nominal concentration [1, 12]: −7.58%
- Stability, measured concentration Mean ± SD [1, 12]: 369.67 ± 6.98 ng/mL
- Stability, Accuracy (RE%) vs nominal concentration [1, 13]: −3.53%
- Stability, measured concentration Mean ± SD [1, 13]: 0.24 ± 0.01 ng/mL
- Stability, Accuracy (RE%) vs nominal concentration [1, 14]: −2.36%
- Stability, measured concentration Mean ± SD [1, 14]: 73.23 ± 5.40 ng/mL
- Stability, Accuracy (RE%) vs nominal concentration [1, 15]: 0.38%
- Stability, measured concentration Mean ± SD [1, 15]: 401.50 ± 27.46 ng/mL
- Stability, Accuracy (RE%) vs nominal concentration [1, 16]: 1.80%
- Stability, measured concentration Mean ± SD [1, 16]: 0.25 ± 0.01 ng/mL
- Stability, Accuracy (RE%) vs nominal concentration [1, 17]: −0.36%
- Stability, measured concentration Mean ± SD [1, 17]: 74.73 ± 1.64 ng/mL
- stability of plasma samples ([1]; room temperature 8 h, autosampler 24 h after processing, −80 °C 30 days, freezing and thawing three times): stable
- AUC0–72h reduced by [2, 22]: 44.9%
- AUC0–∞ reduced by [2, 22]: 41.3%
- Cmax reduced by [2, 22]: 42.2%
- Vz higher by [2, 22]: 97.1%
- increase in CL [2, 22]: 69%
- AUC(0-inf) [2, 23]: 4180 ± 1040 ng·h/mL
- AUC(0-t) [2, 23]: 4150 ± 1040 ng·h/mL
- Cmax [2, 23]: 171 ± 38 ng/mL
- Tmax [2, 23]: 8 h
- half-life [2, 23]: 9.36 ± 2.09 h
- AUC(0-inf) [2, 24]: 2460 ± 544 ng·h/mL
- AUC(0-t) [2, 24]: 2280 ± 322 ng·h/mL
- Cmax [2, 24]: 99 ± 19.3 ng/mL
- Tmax [2, 24]: 11 h
- half-life [2, 24]: 12.4 ± 12.7 h
- CLz ([2]; TEL 4 mg/kg oral, alone): 16.7 ± 3.5 mL/min/kg
- CLz ([2]; TEL 4 mg/kg oral, with LEN (1.2 mg/kg)): 28.2 ± 5.83 mL/min/kg
- water solubility ([3]; solubility is related to PH): poorly water-soluble
- BCRP interaction ([4]; in vitro studies): substrate and inhibitor
- MRP2 interaction [6]: substrate and inhibitor
